Test results: the NIST ThermoML archive (doi:10.1021/je300382a)

Test: refractive index (Na D-line) (dimensionless); xn = mol fraction of the nth substance listed
Conditions: 101 kPa, Liquid, Standard Abbe refractometry

NCc1ccccc1 [benzylamine] + O
refractive index
Conditions	283.15 K	293.15 K	303.15 K	313.15 K	323.15 K
x1 = 0.0001	1.3338	1.3331	1.3321	1.331	1.3298
x1 = 0.0005	1.3344	1.3337	1.3326	1.3312	1.3297
x1 = 0.001	1.3351	1.3343	1.3333	1.3318	1.3303
x1 = 0.003	1.3376	1.3368	1.3357	1.3342	1.3327
x1 = 0.006	1.3411	1.3403	1.3392	1.3376	1.3361
x1 = 0.01	1.3461	1.3449	1.3441	1.3423	1.3405
x1 = 0.03	1.3683	1.367	1.3654	1.3634	1.3614
x1 = 0.05	1.387	1.3853	1.3834	1.381	1.3787
x1 = 0.07	1.4047	1.4007	1.3985	1.3961	1.3937
x1 = 0.1	1.4252	1.4214	1.4183	1.4163	1.4136
x1 = 0.2	1.468	1.4648	1.4614	1.4592	1.4569
x1 = 0.3	1.4957	1.4918	1.4879	1.4848	1.4818
x1 = 0.4	1.5143	1.5097	1.5057	1.5024	1.4985
x1 = 0.5	1.5263	1.5218	1.5172	1.5129	1.5084
x1 = 0.6	1.5343	1.5296	1.5252	1.5202	1.5159
x1 = 0.7	1.5399	1.5355	1.5307	1.5259	1.5211
x1 = 0.8	1.5447	1.5397	1.5344	1.5296	1.5247
x1 = 0.9	1.5491	1.5429	1.5375	1.5319	1.527
x1 = 1	1.5516	1.5445	1.5393	1.5328	1.5279
